The text below walks through data of PMC10238538, “Human soluble CD39 displays substrate inhibition in a substrate-specific manner” (Scientific Reports, 2023).

Assay [1] deals with T1, Recombinant Human CD39/ENTPD1 Protein (Homo sapiens, UniProt P49961).
T1 construct: purchased R&D System (Biotechne) 4397-EN-010
T1 sequence (P49961 38-478 limits assumed): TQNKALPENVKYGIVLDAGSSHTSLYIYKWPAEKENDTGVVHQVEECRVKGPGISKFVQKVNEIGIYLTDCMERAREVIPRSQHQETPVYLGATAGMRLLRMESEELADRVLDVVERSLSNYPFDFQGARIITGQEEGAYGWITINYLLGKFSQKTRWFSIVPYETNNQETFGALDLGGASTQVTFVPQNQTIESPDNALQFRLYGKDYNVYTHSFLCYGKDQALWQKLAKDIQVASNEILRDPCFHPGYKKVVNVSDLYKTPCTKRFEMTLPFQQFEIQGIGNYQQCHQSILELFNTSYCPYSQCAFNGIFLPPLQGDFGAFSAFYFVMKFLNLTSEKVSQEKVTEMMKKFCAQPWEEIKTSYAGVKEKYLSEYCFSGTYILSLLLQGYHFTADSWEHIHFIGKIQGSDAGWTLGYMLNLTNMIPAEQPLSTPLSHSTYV
More on the design: method as in PMID 23425137. To be noted: result in words; cited from earlier work.

Assay [2] has as its target T1, Recombinant Human CD39/ENTPD1 Protein. Nature of the assay: Inhibition of CD39 activity by reaction products (nucleoside monophosphates), Malachite Green phosphate assay. Format: biochemical.
Assay [3] shares this target. Description: CD39 activity with varying substrate concentration (phosphate release, Malachite Green), fitted to substrate inhibition model. To be noted: for Vmax: 0.02 µg/ml enzyme, 5 mM CaCl2, 30 min, room temperature; for kcat: Vmax divided by CD39 concentration; for substrate inhibition at high substrate concentrations: result in words. The assay is classed as biochemical.

The mark [4] stands for this setting: compound as substrate, Haldane substrate inhibition model.
The mark [5] stands for this setting: substrate inhibition constant, compound as substrate, Haldane substrate inhibition model.

Regarding `CCCCSc1nc2c(N)ncnc2n1[C@@H]1O[C@H](COP(=O)(O)OP(=O)(O)O)[C@@H](O)[C@H]1O` [8-BuS-ADP], in assay [1], the “hydrolysis by CD39” value was “resistant to hydrolysis by CD39”.
For `Nc1nc2c(ncn2[C@@H]2O[C@H](COP(=O)(O)O)[C@@H](O)[C@H]2O)c(=O)[nH]1` [GMP], the IC50 in assay [2] (24 μM GTP as substrate) is about 350 µM.
As for `O=c1ccn([C@@H]2O[C@H](COP(=O)(O)OP(=O)(O)O)[C@@H](O)[C@H]2O)c(=O)[nH]1` [UDP], in assay [3] (setting [4]), the Km came out at 13.3 µM and the Vmax is on record as 0.025 nmol/min. For the same molecule, in assay [3] (compound as substrate), the kcat was determined as 21.2 s⁻¹ and the “substrate inhibition at high substrate concentrations” value (shortened to “substrate inhibition”) is recorded as “almost no substrate inhibition”.
For `O=c1ccn([C@@H]2O[C@H](COP(=O)(O)O)[C@@H](O)[C@H]2O)c(=O)[nH]1` [UMP], in assay [2] (24 μM UTP as substrate), the IC50 was about 165 µM.
With `Nc1nc2c(ncn2[C@@H]2O[C@H](COP(=O)(O)OP(=O)(O)OP(=O)(O)O)[C@@H](O)[C@H]2O)c(=O)[nH]1` [GTP], in assay [3] (setting [4]), the Km was 20.6 µM and the Vmax is 0.021 nmol/min. Further, in assay [3] (compound as substrate), the kcat is 17.8 s⁻¹ and the “substrate inhibition” value is “Substrate inhibition was seen”. Further, the Ki in assay [3] (setting [5]) was determined as 680 µM.
On to `Nc1ncnc2c1ncn2[C@@H]1O[C@H](COP(=O)(O)OP(=O)(O)O)[C@@H](O)[C@H]1O` [ADP], for which, in assay [3] (setting [4]), the Km is 5.71 µM and the Vmax worked out at 0.021 nmol/min. The kcat in assay [3] (compound as substrate) amounted to 17.8 s⁻¹. In addition, the Ki in assay [3] (setting [5]) was determined as 358 µM.
The matching figures for `Nc1ncnc2c1ncn2[C@@H]1O[C@H](COP(=O)(O)OP(=O)(O)OP(=O)(O)O)[C@@H](O)[C@H]1O` [ATP]: 4.01 µM, 0.020 nmol/min, 17.0 s⁻¹ and 818 µM.
Turning to `CSc1nc(N)c2ncn([C@@H]3O[C@H](COP(=O)(O)OP(=O)(O)O)[C@@H](O)[C@H]3O)c2n1` [2-MeS-ADP, 2-methylthio-ADP], in assay [3] (setting [4]), the Km amounted to 9.36 µM and the Vmax came to 0.021 nmol/min. For the same molecule, in assay [3] (compound as substrate), the kcat was 17.8 s⁻¹ and the “substrate inhibition” value was “no substrate inhibition”.
For `Nc1nc2c(ncn2[C@@H]2O[C@H](COP(=O)(O)OP(=O)(O)O)[C@@H](O)[C@H]2O)c(=O)[nH]1` [GDP], in assay [3] (setting [4]), the Km stood at 26.6 µM and the Vmax is 0.022 nmol/min. Moreover, the kcat in assay [3] (compound as substrate) came out at 18.7 s⁻¹. The Ki in assay [3] (substrate inhibition constant as stated in text) was over 1000 µM.
`CSc1nc(N)c2ncn([C@@H]3O[C@H](COP(=O)(O)OP(=O)(O)OP(=O)(O)O)[C@@H](O)[C@H]3O)c2n1` [2-MeS-ATP]: in assay [3] (setting [4]), the Km was found to be 5.37 µM and the Vmax is on record as 0.018 nmol/min. Further, in assay [3] (compound as substrate), the kcat was determined as 15.3 s⁻¹. Further, the Ki in assay [3] (setting [5]) was 1820 µM.
As to `O=c1ccn([C@@H]2O[C@H](COP(=O)(O)OP(=O)(O)OP(=O)(O)O)[C@@H](O)[C@H]2O)c(=O)[nH]1` [UTP], in assay [3] (setting [4]), the Km was 9.38 µM and the maximum rate (Vmax) was determined as 0.024 nmol/min. In addition, in assay [3] (compound as substrate), the kcat stood at 20.4 s⁻¹ and the “substrate inhibition” value is recorded as “weak substrate inhibition”. Moreover, the Ki in assay [3] (setting [5]) turned out to be 1960 µM.
As to `CCCCSc1nc2c(N)ncnc2n1C1OC(COP(=O)(O)OP(=O)(O)OP(=O)(O)O)C(O)C1O` (centres unmarked) [8-butylthio (BuS)-ATP], the “hydrolysis by CD39” value in assay [1] is “resistant to hydrolysis by CD39”.
